Reference: patent US11964971B2, “Methods and compositions for modulating splicing” (Skyhawk Therapeutics, Inc., priority 2019, dated 2024)

How the values were obtained:
MDR1 = assay: in vitro; conditions: dog; for Papp A→B at 120 min, 5 μM: MDCK-MDR1, pH 7.4, MDCK-MDR1: Papp A-B (10^−6, cm/s); for Papp B→A at 120 min, 5 μM: MDCK-MDR1, pH 7.4, MDCK-MDR1: Papp B-A (10^−6, cm/s)
MDR1 (P-gp) = assay: MDCK-MDR1 permeability assay, blood-brain-barrier penetration potential; conditions: dog, MDCK-MDR1, pH 7.4, MDCK-MDR1 Efflux Ratio
SMN protein = SMN protein assay (MSD) in SMA patient fibroblasts (GM03813); type: cell-based, human
Protocol: Compounds are tested on spinal muscular atrophy (SMA) patient fibroblasts (GM03813, Coriell) at doses ranging from 2.5 μM to 0.6 nM. 7000 cells/well are seeded in 96-well plates. Compounds are incubated for 48 hours and the cells were lysed with 100 μL of lysis buffer. 20 μL of lysate is used for SMN protein measurement by Mesoscale Discovery (MSD) assay developed by PharmOptima (Michigan). A standard curve prepared with SMN protein ranging from […] is used in each MSD plate to calculate the absolute SMN protein amount in each sample.

[1] = test system: MDR1-MDCK cell monolayers; conditions: dog, MDCK-MDR1, 120 min, 5 μM, pH 7.4

Compound	Papp A→B at 120 min, 5 μM (MDR1)	Papp B→A at 120 min, 5 μM (MDR1)	efflux ratio at 120 min, 5 μM (MDR1 (P-gp))	EC50 (SMN protein)	MDCK-MDR1: % Recov A-B (%) [1]	MDCK-MDR1: % Recov B-A (%) [1]
COc1cc(-c2ccc(-c3cnc(N(C)[C@H]4C[C@@H]5CCC(N5)[C@H]4F)cn3)c(O)c2)cc(F)n1 (single isomer, unassigned) [Compound 44E2]	3.33 ×10⁻⁶ cm/s	9.1 ×10⁻⁶ cm/s	3	101 to 500 nM	13%	52%
CN(c1cnc(-c2ccc(-c3ccn(C)c(=O)c3)cc2O)cn1)[C@H]1C[C@@H]2CCC(N2)[C@H]1F (single isomer, unassigned) [Compound 45E2]	1.9 ×10⁻⁶ cm/s	65.6 ×10⁻⁶ cm/s	35	51 to 100 nM	87%	87%
CN(c1cnc(-c2ccc(-c3ccn(CF)c(=O)c3)cc2O)cn1)[C@@H]1CC2CC[C@H](N2)[C@@H]1F (single isomer, unassigned) [Compound 46E1]	1.69 ×10⁻⁶ cm/s	37.9 ×10⁻⁶ cm/s	22	501 to 10000 nM	74%	78%
CN(c1cnc(-c2ccc(-c3ccn(CF)c(=O)c3)cc2O)cn1)[C@H]1C[C@@H]2CCC(N2)[C@H]1F (single isomer, unassigned) [Compound 46E2]	2 ×10⁻⁶ cm/s	43 ×10⁻⁶ cm/s	22	101 to 500 nM	77%	80%
CN(c1cnc(-c2ccc(-c3cc(=O)n(C)cn3)cc2O)cn1)[C@@H]1CC2CC[C@H](N2)[C@@H]1F (single isomer, unassigned) [Compound 47E1]	2.32 ×10⁻⁶ cm/s	52.8 ×10⁻⁶ cm/s	23	101 to 500 nM	74%	78%
CN(c1cnc(-c2ccc(-c3cc(=O)n(C)cn3)cc2O)cn1)[C@H]1C[C@@H]2CCC(N2)[C@H]1F (single isomer, unassigned) [Compound 47E2]	3.35 ×10⁻⁶ cm/s	51.1 ×10⁻⁶ cm/s	15	51 to 100 nM	84%	90%
COc1cc(-c2ccc(-c3cnc(N(C)[C@H]4C[C@@H]5CCC(N5)[C@H]4F)cn3)c(O)c2)ncn1 (single isomer, unassigned) [Compound 48E2]	5.38 ×10⁻⁶ cm/s	13.8 ×10⁻⁶ cm/s	3	51 to 100 nM	28%	57%
Cn1cc(-c2ccc(-c3cnc(N(C4CC4)[C@@H]4CC5CC[C@H](N5)[C@@H]4F)cn3)c(O)c2)cn1 (single isomer, unassigned) [Compound 49E1]	4.73 ×10⁻⁶ cm/s	26.5 ×10⁻⁶ cm/s	6	501 to 10000 nM	47%	65%
Cn1cnc(-c2cc(O)c(-c3cnc(N(C4CC4)[C@@H]4CC5CC[C@H](N5)[C@@H]4F)cn3)cc2F)cc1=O (single isomer, unassigned) [Compound 50E1]	1.59 ×10⁻⁶ cm/s	46.4 ×10⁻⁶ cm/s	29	501 to 10000 nM	82%	92%
Cn1cnc(-c2cc(O)c(-c3cnc(N(C4CC4)[C@H]4C[C@@H]5CCC(N5)[C@H]4F)cn3)cc2F)cc1=O (single isomer, unassigned) [Compound 50E2]	1.29 ×10⁻⁶ cm/s	49.3 ×10⁻⁶ cm/s	38	501 to 10000 nM	81%	90%
COc1cc(-c2ccc(-c3cnc(N(C4CC4)[C@@H]4CC5CC[C@H](N5)[C@@H]4F)cn3)c(O)c2)ccn1 (single isomer, unassigned) [Compound 51E1]	1.5 ×10⁻⁶ cm/s	3.19 ×10⁻⁶ cm/s	2	501 to 10000 nM	8%	34%
COc1cc(-c2ccc(-c3cnc(N(C4CC4)[C@H]4C[C@@H]5CCC(N5)[C@H]4F)cn3)c(O)c2)ccn1 (single isomer, unassigned) [Compound 51E2]	1.27 ×10⁻⁶ cm/s	2.99 ×10⁻⁶ cm/s	2	501 to 10000 nM	11%	34%
COc1cc(-c2ccc(-c3cnc(N(C4CC4)[C@@H]4CC5CC[C@H](N5)[C@@H]4F)cn3)c(O)c2)cc(F)n1 (single isomer, unassigned) [Compound 52E1]	0.92 ×10⁻⁶ cm/s	0.71 ×10⁻⁶ cm/s	1	501 to 10000 nM	12%	76%
COc1cc(-c2ccc(-c3cnc(N(C4CC4)[C@H]4C[C@@H]5CCC(N5)[C@H]4F)cn3)c(O)c2)cc(F)n1 (single isomer, unassigned) [Compound 52E2]	1.63 ×10⁻⁶ cm/s	3.32 ×10⁻⁶ cm/s	2	501 to 10000 nM	12%	49%
Cn1ccc(-c2ccc(-c3cnc(N(C4CC4)[C@@H]4CC5CC[C@H](N5)[C@@H]4F)cn3)c(O)c2)cc1=O (single isomer, unassigned) [Compound 53E1]	1.51 ×10⁻⁶ cm/s	50.9 ×10⁻⁶ cm/s	34	501 to 10000 nM	71%	71%
Cn1ccc(-c2ccc(-c3cnc(N(C4CC4)[C@H]4C[C@@H]5CCC(N5)[C@H]4F)cn3)c(O)c2)cc1=O (single isomer, unassigned) [Compound 53E2]	1.61 ×10⁻⁶ cm/s	46.1 ×10⁻⁶ cm/s	29	501 to 10000 nM	71%	69%
O=c1cc(-c2ccc(-c3cnc(N(C4CC4)[C@@H]4CC5CC[C@H](N5)[C@@H]4F)cn3)c(O)c2)ccn1CF (single isomer, unassigned) [Compound 54E1]	1.92 ×10⁻⁶ cm/s	43.4 ×10⁻⁶ cm/s	23	501 to 10000 nM	64%	70%
O=c1cc(-c2ccc(-c3cnc(N(C4CC4)[C@H]4C[C@@H]5CCC(N5)[C@H]4F)cn3)c(O)c2)ccn1CF (single isomer, unassigned) [Compound 54E2]	1.81 ×10⁻⁶ cm/s	44 ×10⁻⁶ cm/s	24	501 to 10000 nM	63%	67%
Cn1cnc(-c2ccc(-c3cnc(N(C4CC4)[C@@H]4CC5CC[C@H](N5)[C@@H]4F)cn3)c(O)c2)cc1=O (single isomer, unassigned) [Compound 55E1]	2.46 ×10⁻⁶ cm/s	64.4 ×10⁻⁶ cm/s	26	501 to 10000 nM	81%	85%
Cn1cnc(-c2ccc(-c3cnc(N(C4CC4)[C@H]4C[C@@H]5CCC(N5)[C@H]4F)cn3)c(O)c2)cc1=O (single isomer, unassigned) [Compound 55E2]	2.25 ×10⁻⁶ cm/s	42.2 ×10⁻⁶ cm/s	19	501 to 10000 nM	71%	76%
COc1cc(-c2ccc(-c3cnc(N(C4CC4)[C@@H]4CC5CC[C@H](N5)[C@@H]4F)cn3)c(O)c2)ncn1 (single isomer, unassigned) [Compound 56E1]	2.09 ×10⁻⁶ cm/s	7.91 ×10⁻⁶ cm/s	4	501 to 10000 nM	17%	51%
COc1cc(-c2ccc(-c3cnc(N(C4CC4)[C@H]4C[C@@H]5CCC(N5)[C@H]4F)cn3)c(O)c2)ncn1 (single isomer, unassigned) [Compound 56E2]	2.12 ×10⁻⁶ cm/s	4.55 ×10⁻⁶ cm/s	2	101 to 500 nM	14%	48%
CNC(=O)/C=C/c1cc(O)c(-c2cnc(N(C)[C@@H]3CC4CC[C@H](N4)[C@@H]3F)cn2)cc1F (single isomer, unassigned) [Compound 60E1]	1.71 ×10⁻⁶ cm/s	51.3 ×10⁻⁶ cm/s	30	51 to 100 nM	93%	88%
CN(c1cnc(-c2cc(F)c(C3=CC(F)NC(F)=C3)cc2O)cn1)[C@@H]1C[C@@]2(C)CC[C@](C)(N2)[C@@H]1F (single isomer, unassigned) [Compound 63E1]	0.7 ×10⁻⁶ cm/s	0.45 ×10⁻⁶ cm/s	1	501 to 10000 nM	18%	35%
COc1cc(-c2cc(O)c(-c3cnc(N(C)[C@@H]4C[C@@]5(C)CC[C@](C)(N5)[C@@H]4F)cn3)cc2F)cnn1 (single isomer, unassigned) [Compound 64E1]	3.97 ×10⁻⁶ cm/s	49.8 ×10⁻⁶ cm/s	13	501 to 10000 nM	71%	80%
